Literature values in US20200069618A1, “COMPOSITIONS HAVING AN AGENT AND AN ENHANCER THEREOF, METHODS OF USE, AND DELIVERY SYSTEMS” (priority 2018, published 2020).

Columns and labels:
rats [1] = settings: administration into the basal forebrain
rats [2] = settings: intercerebroventricular administration

CCCCC/C=C\C/C=C\C/C=C\C/C=C\CCCC(=O)NCCO [anandamide, Anandamide]
levels of adenosine (rats [1]): increase levels of adenosine | slow-wave sleep and REM sleep (rats [2]): increase slow-wave sleep and REM sleep | wakefulness (rats [2]): decrease wakefulness
